System: human ENTPD2 engineered B16LM3 clone B5
Test: Human ENTPD2 engineered B16LM3 clone B5 model, combination with A2AR antagonist NIR178
Type: in vivo
Settings: NIR178 50 or 200 mg/kg p.o. 4 days on, 3 days off, combined with non-specific isotype control
Description: Human ENTPD2-engineered B16LM3 clone B5 was established in female C57BL/6 mice by subcutaneous injection of 0.5×10^6 cells into the right flank of each mouse. Once tumors reached approximately 50 mm^3, mice were randomized according to tumor volume into treatment groups (n=8 per group). Mice received an intravenous (i.v.) treatment of either anti-ENTPD2 mAb1 at a final dose of 10/mg/kg or a non-specific human IgG1 isotype control 10 mg/kg on day 1 of study. NIR178 was administered per os (p.o.) for 4 days on and 3 days off, starting at the beginning of study at either 50 mg/kg or 200 mg/kg. All doses were adjusted to individual mouse body weights. The study was carried out for thirteen days post treatment initiation and tumor volumes were assessed every other day to assess efficacy.

Nc1nc(-n2cccn2)nc(-n2cccn2)c1Br [NIR178, 5-bromo-2,6-di-(1H-pyrazol-1-yl)pyrimidine-4-amine, reference compound]
anti-tumor efficacy: No significant anti-tumor efficacy

From patent US20220348651A1, “ENTPD2 ANTIBODIES, COMBINATION THERAPIES, AND METHODS OF USING THE ANTIBODIES AND COMBINATION THERAPIES” (Novartis AG, priority 2019, published 2022)
